Among the data in patent US20250059174A1, “Pharmaceutical Compounds and Compositions as C-Kit Kinase Inhibitors” (Enanta Pharmaceuticals, Inc., priority 2023, published 2025) are IC50 and EC50 values, retold here.

Assay [1] concerns the target Recombinant human c-KIT kinase (Homo sapiens (Human), UniProt P10721). As to the kind of experiment: c-KIT kinase chemiluminescence assay (ADP-Glo). The format is biochemical. The following applies: ATP 50 μM. The procedure, abridged:
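ADP formed by c-KIT on polyEY over 2 h at RT (after 30 min enzyme preincubation; Tris pH 7.5, MgCl2, BSA, DTT buffer) was detected by ADP-Glo luminescence. IC50 and Hill slope were fitted to control-normalized activity across compound concentrations.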

Assay [2] relates to M-07e cells. As to the kind of experiment: M-07e cellular assay (SCF-mediated cell proliferation). The format is cell-based. The note with it: Homo sapiens, 72 hours, CellTiter Glo. The procedure, abridged:
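EC50 values reflect inhibition of SCF-driven proliferation, with SCF at EC90 and a 72 h compound exposure, measured as CellTiter Glo luminescence. Growth is scaled between no-SCF (0%) and untreated (100%) wells.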

A value given as a limit tells only on which side of the number the result lay.

Recombinant human c-KIT kinase, sequence (P10721 26-976): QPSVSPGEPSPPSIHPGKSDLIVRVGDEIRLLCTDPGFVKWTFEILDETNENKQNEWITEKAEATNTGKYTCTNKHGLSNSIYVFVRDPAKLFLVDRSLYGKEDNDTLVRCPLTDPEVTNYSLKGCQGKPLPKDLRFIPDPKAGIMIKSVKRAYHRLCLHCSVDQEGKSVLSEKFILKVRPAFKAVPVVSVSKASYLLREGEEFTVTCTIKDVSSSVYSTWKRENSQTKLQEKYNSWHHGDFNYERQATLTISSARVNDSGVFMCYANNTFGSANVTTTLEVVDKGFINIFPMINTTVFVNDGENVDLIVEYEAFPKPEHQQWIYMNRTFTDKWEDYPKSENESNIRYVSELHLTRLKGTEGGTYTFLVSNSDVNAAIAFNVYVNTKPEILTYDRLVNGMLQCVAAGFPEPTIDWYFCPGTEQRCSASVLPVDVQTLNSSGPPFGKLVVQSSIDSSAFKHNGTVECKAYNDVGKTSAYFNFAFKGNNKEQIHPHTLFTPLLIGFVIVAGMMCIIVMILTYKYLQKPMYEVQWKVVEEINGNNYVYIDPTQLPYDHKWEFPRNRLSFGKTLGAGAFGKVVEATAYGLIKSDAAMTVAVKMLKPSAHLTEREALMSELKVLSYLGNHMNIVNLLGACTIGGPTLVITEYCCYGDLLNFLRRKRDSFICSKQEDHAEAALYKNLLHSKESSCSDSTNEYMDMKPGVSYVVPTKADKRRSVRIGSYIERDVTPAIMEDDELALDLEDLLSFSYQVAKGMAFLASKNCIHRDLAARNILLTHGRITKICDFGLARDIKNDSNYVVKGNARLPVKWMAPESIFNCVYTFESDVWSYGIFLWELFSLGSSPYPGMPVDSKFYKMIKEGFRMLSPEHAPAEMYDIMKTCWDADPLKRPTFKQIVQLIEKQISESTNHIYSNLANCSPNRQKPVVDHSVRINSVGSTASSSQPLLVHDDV

Take `Cc1ccc(-c2noc([C@H]3C[C@@H]3F)n2)cc1NC(=O)c1cnn2ccc(-c3nn[nH]n3)cc12` [Example 129]: the IC50 in assay [1] was in the range of 100 to 1000 nM. In assay [2], this compound yielded an EC50 above 1000 nM.
On the same counts, the results for `Cc1ccc(-c2noc([C@H]3C[C@@H]3F)n2)cc1NC(=O)c1cnn2ccc(N)cc12` [Example 92] are below 100 nM and below 100 nM.
For the compound `Cc1ncc(-c2nnn(C)n2)cc1NC(=O)c1cnn2ccc(N3CC4(C3)CC(O)(C(F)F)C4)cc12` [Example 312-2], the half-maximal inhibitory concentration (IC50) in assay [1] lay within 100 to 1000 nM. Moreover, the half-maximal effective concentration (EC50) in assay [2] was below 100 nM.
With `Cc1ccc(-c2noc([C@H]3C[C@@H]3F)n2)cc1NC(=O)c1cnn2ccc(N3CC4(CN(C(=O)C(F)(F)F)C4)C3)cc12` [Example 241-15], the half-inhibitory concentration (IC50) in assay [1] was below 100 nM. In assay [2], this compound yielded an EC50 below 100 nM.
For `Cc1ncc(-c2ccn3ncc(C(=O)Nc4cc(-c5noc([C@H]6C[C@@H]6F)n5)ccc4C)c3c2)cn1` [Example 163], in assay [1], the IC50 is below 100 nM. Also, the EC50 in assay [2] is below 100 nM.
In the case of `Cc1ccc(-c2noc([C@H]3C[C@@H]3F)n2)cc1NC(=O)c1cnc(-c2ccc3[nH]c(=O)ccc3c2)o1` [Example 308-14], the IC50 in assay [1] is below 100 nM. The half-maximal effective concentration (EC50) in assay [2] is below 100 nM.
For `Cc1ccc(-c2noc([C@H]3C[C@@H]3F)n2)cc1NC(=O)c1cnc(-c2ccnc(NC(=O)OC(C)(C)C)c2)o1` [Example 291], the IC50 in assay [1] is above 1000 nM. The compound further gave an EC50 in assay [2] above 1000 nM.
In the case of `Cc1ncc(-c2noc(C3CN(C(=O)OC(C)(C)C)C3)n2)cc1NC(=O)c1cnn2ccc(N3CC4(C3)CC(O)(C(F)F)C4)cc12` [Example 281-90], the IC50 in assay [1] was above 1000 nM. The same compound displayed an EC50 in assay [2] of 100 to 1000 nM.
On the same counts, the results for `Cc1ccc(-c2noc([C@H]3C[C@@H]3F)n2)cc1NC(=O)c1cnn2cc(-c3cn(C45CC(C4)C5)nn3)ccc12` [Example 123] are 100 to 1000 nM and below 100 nM.
On the same counts, the results for `Cc1ncc(-c2noc([C@H]3C[C@@](C)(O)C3)n2)cc1NC(=O)c1cnn2ccc(N3CC4(C3)CC(O)(C(F)F)C4)cc12` [Example 281-36] are below 100 nM and 100 to 1000 nM.
The matching figures for `[2H]C([2H])([2H])n1nnnc1-c1cnc(C)c(NC(=O)c2cnn3ccc(N4CC5(C4)CC(O)(C(F)F)C5)cc23)c1` [Example 312-3]: above 1000 nM and above 1000 nM.
Regarding `Cc1ccc(-c2noc([C@H]3C[C@@H]3F)n2)cc1NC(=O)c1cnc(-c2ccc(-n3cccn3)cc2)o1` [Example 308-13], the IC50 in assay [1] was above 1000 nM. The same compound registered an EC50 in assay [2] above 1000 nM.
Consider `Cc1ncc(-c2ncc(C(F)(F)F)cn2)cc1NC(=O)c1cnn2ccc(N3CC4(C3)CC(O)(C(F)F)C4)cc12` [Example 328], for which, in assay [1], the half-inhibitory concentration (IC50) was 100 to 1000 nM. Besides, in assay [2], the EC50 is below 100 nM.
The matching figures for `Cc1ccc(-c2noc([C@H]3C[C@@H]3F)n2)nc1NC(=O)c1cnn2ccc(N3CC4(COC4)C3)cc12` [Example 261]: 100 to 1000 nM and 100 to 1000 nM.
On the same counts, the results for `Cc1ccc(-c2noc([C@H]3C[C@@H]3F)n2)cc1NC(=O)c1cnc(-c2ccc3[nH]c4ccccc4c3c2)o1` [Example 303] are 100 to 1000 nM and 100 to 1000 nM.
In the case of `Cc1ccc(-c2noc([C@H]3C[C@@H]3F)n2)cc1NC(=O)c1cnc(-n2cccn2)o1` [Example 308-5], the IC50 in assay [1] is above 1000 nM. Moreover, the 50% effective concentration (EC50) in assay [2] was above 1000 nM.
For the compound `Cc1ccc(-c2noc([C@H]3C[C@@H]3F)n2)cc1NC(=O)c1cnn2ccc(C3CC4(C3)CC(F)(F)C4)cc12` [Example 167-1], the IC50 in assay [1] is below 100 nM. The compound further had a concentration for a half-maximal effect (EC50) in assay [2] below 100 nM.
As for `COc1ccc2c(C(=O)Nc3cc(-c4noc([C@H]5C[C@@H]5F)n4)ccc3C)cnn2c1` [Example 58], the half-maximal inhibitory concentration (IC50) in assay [1] is below 100 nM. This compound also registered a 50% effective concentration (EC50) in assay [2] below 100 nM.
On to `CC(=O)Nc1ccc(-c2ncc(C(=O)Nc3cc(-c4noc([C@H]5C[C@@H]5F)n4)ccc3C)o2)cn1` [Example 308-20], for which, in assay [1], the IC50 was above 1000 nM. The EC50 in assay [2] was 100 to 1000 nM.
The matching figures for `Cc1ccc(-c2cnc(C3CC3)cn2)cc1NC(=O)c1cnn2ccc(N3CC4(COC4)C3)cc12` [Example 341]: below 100 nM and below 100 nM.
On the same counts, the results for `Cc1ccc(-c2noc([C@H]3C[C@@H]3F)n2)cc1NC(=O)c1cnc(-c2ccc3c(c2)CC(=O)N3)o1` [Example 299] are below 100 nM and below 100 nM.
On the same counts, the results for `Cc1ccc(-c2noc([C@H]3C[C@@H]3F)n2)cc1NC(=O)c1cnc(-c2ccc3c(c2)C2(CC2)C(=O)N3)o1` [Example 308-4] are 100 to 1000 nM and 100 to 1000 nM.
For `Cc1ccc(-c2noc(C3CN(C(=O)C4CC(F)(F)C4)C3)n2)cc1NC(=O)c1cnn2ccc(N3CC4(COC4)C3)cc12` [Example 281-49], the IC50 in assay [1] was above 1000 nM. Moreover, in assay [2], the EC50 is above 1000 nM.
In the case of `Cc1ncc(-c2ncc(OC(F)F)cn2)cc1NC(=O)c1cnc(-c2ccc3c(c2)CC(=O)N3)o1` [Example 362], the IC50 in assay [1] is 100 to 1000 nM. This compound yielded an EC50 in assay [2] of 100 to 1000 nM.
Regarding `Cc1ccc(-c2ncc(OC(F)F)cn2)cc1NC(=O)c1cnn2ccc(N3CC4(C3)CC(O)(C(F)F)C4)cc12` [Example 314], in assay [1], the IC50 is below 100 nM. The EC50 in assay [2] was below 100 nM.
Turning to `Cc1ccc(-c2noc([C@H]3C[C@@H]3F)n2)cc1NC(=O)c1cnn2ccc(-c3c(C)nn(CCN4CCOCC4)c3C)cc12` [Example 162], the IC50 in assay [1] is below 100 nM. In assay [2], this compound registered a half-maximal effective concentration (EC50) below 100 nM.
In the case of `Cc1ccc(-c2noc([C@H]3C[C@@H]3F)n2)cc1NC(=O)c1cnc(-c2cccc3nc[nH]c23)o1` [Example 308-38], the IC50 in assay [1] was 100 to 1000 nM. This compound also displayed an EC50 in assay [2] of 100 to 1000 nM.
Turning to `Cc1ccc(-c2noc(C3CN(CC(F)(F)F)C3)n2)cc1NC(=O)c1cnn2ccc(N3CC4(C3)CC(O)(C(F)F)C4)cc12` [Example 281-39], in assay [1], the half-inhibitory concentration (IC50) was below 100 nM. The same compound displayed a 50% effective concentration (EC50) in assay [2] below 100 nM.
Turning to `Cc1ccc(-c2noc([C@H]3C[C@@H]3F)n2)cc1NC(=O)c1cnn2ccc(N3CC4(CCN4)C3)cc12` [Example 239], the IC50 in assay [1] was below 100 nM. This compound yielded a concentration giving a half-maximal response (EC50) in assay [2] of 100 to 1000 nM.
Consider `Cc1ccc(-c2noc([C@H]3C[C@@H]3F)n2)cc1NC(=O)c1cnn2ccc(-c3ccc(N4CC5(COC5)C4)nc3C)cc12` [Example 171-19], for which the half-inhibitory concentration (IC50) in assay [1] is below 100 nM. In addition, the EC50 in assay [2] was below 100 nM.
With `Cc1ccc(-c2noc([C@H]3C[C@@H](OC(F)(F)F)C3)n2)cc1NC(=O)c1cnn2ccc(N3CC4(CNC4)C3)cc12` [Example 260], in assay [1], the IC50 was below 100 nM. In addition, in assay [2], the half-maximal effective concentration (EC50) lay within 100 to 1000 nM.
On the same counts, the results for `Cc1ncc(-c2noc([C@H]3C[C@@H](OC(F)(F)F)C3)n2)cc1NC(=O)c1cnn2cc(-c3cn(CC(C)(C)O)nn3)ccc12` [Example 132-10] are 100 to 1000 nM and below 100 nM.
The matching figures for `Cc1ccc(-c2noc(C3CN(C(=O)OC4CC4)C3)n2)cc1NC(=O)c1cnc(-c2ccc3c(c2)CC(=O)N3)o1` [Example 308-63]: 100 to 1000 nM and 100 to 1000 nM.
On the same counts, the results for `Cc1ccc(-c2noc(C3CN(C(=O)OCc4ccccc4)C3)n2)cc1NC(=O)c1cnc(-c2ccc3c(c2)CC(=O)N3)o1` [Example 308-60] are above 1000 nM and above 1000 nM.
As for `Cc1ccc(-c2noc([C@H]3C[C@@H]3F)n2)cc1NC(=O)c1cnn2cc(C3CC3)ccc12` [Example 56], in assay [1], the IC50 was below 100 nM. Also, in assay [2], the EC50 is 100 to 1000 nM.
On the same counts, the results for `Cc1ccc(-c2noc([C@H]3C[C@@H](OC(F)F)C3)n2)cc1NC(=O)c1cnn2ccc(N3CC4(C3)CC(O)(C(F)F)C4)cc12` [Example 281-20] are below 100 nM and below 100 nM.
The matching figures for `Cc1ccc(-c2cnc(OC(F)F)nc2)cc1NC(=O)c1cnn2ccc(N3CC4(COC4)C3)cc12` [Example 329]: below 100 nM and 100 to 1000 nM.
Turning to `Cc1ccc(-c2noc([C@H]3C[C@@H]3F)n2)cc1NC(=O)c1cnc(N2CCC3(CCC(=O)N3)CC2)s1` [Example 98-8], the IC50 in assay [1] is above 1000 nM. For the same compound, in assay [2], the EC50 is above 1000 nM.
As to `Cc1ccc(-c2noc([C@H]3C[C@@H]3F)n2)cc1NC(=O)c1cnn2ccc(N3CCCC4(COC4)C3)cc12` [Example 201], in assay [1], the IC50 is below 100 nM. The compound also had a half-maximal effective concentration (EC50) in assay [2] below 100 nM.
Take `[2H]C([2H])([2H])n1nnc(-c2cnc(C)c(NC(=O)c3cnn4ccc(N5CC6(C5)CC(O)(C(F)F)C6)cc34)c2)n1` [Example 312-4]: in assay [1], the concentration for half-maximal inhibition (IC50) was 100 to 1000 nM. Moreover, the 50% effective concentration (EC50) in assay [2] was below 100 nM.
Take `Cc1ncc(-c2noc([C@H]3C[C@H](C(F)(F)F)C3)n2)cc1NC(=O)c1cnn2ccc(N3CC4(C3)CC(O)(C(F)F)C4)cc12` [Example 281-68]: in assay [1], the IC50 is below 100 nM. Besides, in assay [2], the EC50 is below 100 nM.
For `Cc1ccc(-c2noc(N3CCOCC3)n2)cc1NC(=O)c1cnn2ccc(N3CC4(COC4)C3)cc12` [Example 281-83], the IC50 in assay [1] was in the range of 100 to 1000 nM. Also, the 50% effective concentration (EC50) in assay [2] was below 100 nM.
In the case of `Cc1ccc(-c2noc([C@H]3C[C@@H](OC(F)(F)F)C3)n2)cc1NC(=O)c1cnn2ccc(-c3c(C)nc(N)nc3C)cc12` [Example 171-7], the IC50 in assay [1] was 100 to 1000 nM. In addition, the concentration for a half-maximal effect (EC50) in assay [2] lay in the range of 100 to 1000 nM.
For `Cc1ncc(-c2noc([C@H]3CC3(F)F)n2)cc1NC(=O)c1cnn2ccc(N3CC4(C3)CC(O)(C(F)F)C4)cc12` [Example 281-89], the IC50 in assay [1] fell in the range of 100 to 1000 nM. In assay [2], the EC50 is below 100 nM.
On to `Cc1ccc(-c2noc([C@H]3C[C@@H](OC(F)(F)F)C3)n2)cc1NC(=O)c1cnn2ccc(N3CC4(CN(CC(F)(F)F)C4)C3)cc12` [Example 244], for which the IC50 in assay [1] is below 100 nM. The EC50 in assay [2] is below 100 nM.
On to `Cc1ccc(-c2noc([C@]3(C)C[C@H](OC(F)F)C3)n2)cc1NC(=O)c1cnn2ccc(N3CC4(COC4)C3)cc12` [Example 281], for which the IC50 in assay [1] is below 100 nM. In assay [2], this compound yielded an EC50 below 100 nM.
